In US9776972B2, “Pyrazole derivatives as arginine methyltransferase inhibitors and uses thereof” (priority 2013, dated 2017):
Like-named read-outs stand apart in the source and are kept apart here.

How the values were obtained:
[1] = target: T1, human PRMT6 (Homo sapiens, UniProt Q96LA8); assay: PRMT6 Biochemical Assay (3H-SAM Flashplate, peptide substrate)
T1 construct: Flag-PRMT6-His; made in house; host or cells: HEK 293F cells (BacMam baculovirus)
From the text: (§1) S-adenosylmethionine (SAM), S-adenosylhomocysteine (SAH), bicine, Tween20, dimethylsulfoxide (DMSO), bovine skin gelatin (BSG), sodium butyrate and Tris(2-carboxyethyl)phosphine hydrochloride solution (TCEP) were purchased from Sigma-Aldrich at the highest level of purity possible. ^3H-SAM was purchase from American Radiolabeled Chemicals with a specific activity of 80 Ci/mmol. 384-well streptavidin Flashplates were purchased from PerkinElmer.
Peptide representative of human histone H4 residues 36-50 was synthesized with an N-terminal linker-affinity tag motif and a C-terminal amide cap by 21st Century Biochemicals.
The amplified gene was subcloned into pFastBacMam (Viva Biotech).
Recombinant baculovirus were generated according to Bac-to-Bac kit instructions (Life Technologies). […] Infections were carried out at 37° C. for 48 hours, harvested by centrifugation, and stored at −80° C. for purification.
Column was washed with 20 mM imidazole in the same buffer and Flag-PRMT6-His was eluted with 150 mM imidazole. […] Flag-PRMT6-His was eluted with 200 ug/ml FLAG peptide in the same buffer. Pooled fractions were dialysed in 20 mM Tris, 150 mM NaCl, 10% glycerol and 5 mM β-mercaptoethanol, pH 7.8.
General Procedure for PRMT6 Enzyme Assays on Peptide Substrates.
(§2) The assays were all performed in a buffer consisting of 20 mM Bicine (pH=7.6), 1 mM TCEP, 0.005% BSG, and 0.002% Tween 20, prepared on the day of use. […] DMSO (1 ul) was added to Columns 11, 12, 23, 24, rows A-H for the maximum signal control and 1 ul of SAH, a known product and inhibitor of PRMT6, was added to columns 11, 12, 23, 24, rows I-P for the minimum signal control. A cocktail (40 ul) containing the PRMT6 enzyme was added by Multidrop Combi (Thermo-Fisher). The compounds were allowed to incubate with PRMT6 for 30 min at room temperature, then a cocktail (10 ul) containing SAM and peptide was added to initiate the reaction (final volume=51 ul). […] The assays were stopped by the addition of non-radiolabeled SAM (10 ul) to a final concentration of 400 uM, which dilutes the ^3H-SAM to a level where its incorporation into the peptide substrate is no longer detectable. 50 ul of the reaction in the 384-well polypropylene plate was then transferred to a 384-well Flashplate and the biotinylated peptides were allowed to bind to the streptavidin surface for at least 1 hour before being washed once with 0.1% Tween20 in a Biotek ELx405 plate washer. The plates were then read in a PerkinElmer TopCount plate reader to measure the quantity of ^3H-labeled peptide bound to the Flashplate surface, measured as disintegrations per minute (dpm) or alternatively, referred to as counts per minute (cpm).
(§3) Where dpm=disintegrations per minute, cmpd=signal in assay well, and min and max are the respective minimum and maximum signal controls.
(§4) Where top and bottom are the normally allowed to float, but may be fixed at 100 or 0 respectively in a 3-parameter fit. The Hill Coefficient normally allowed to float but may also be fixed at 1 in a 3-parameter fit. Y is the % inhibition and X is the compound concentration.

[2] = test system: mono-methyl arginine in RKO cells; assay: RKO Methylation Assay, In Cell Western (ICW) for mono-methyl arginine and DNA content; assay type: cell-based; conditions: Homo sapiens, RKO, 72 h
From the text: RKO adherent cells were purchased from ATCC (American Type Culture Collection), Manassas, Va., USA. DMEM/Glutamax medium, penicillin-streptomycin, heat inactivated fetal bovine serum, 0.05% trypsin and D-PBS were purchased from Life Technologies, Grand Island, N.Y., USA. Odyssey blocking buffer, 800CW goat anti-rabbit IgG (H+L) antibody, and Licor Odyssey infrared scanner were purchased from Licor Biosciences, Lincoln, Nebr., USA. Mono-methyl arginine antibody was purchased from Cell Signaling Technology, Danvers, Mass., USA. Methanol was purchased from VWR, Franklin, Mass., USA. 10% Tween 20 was purchased from KPL, Inc., Gaithersburg, Md., USA. DRAQ5 was purchased from Biostatus Limited, Leicestershire, UK.
RKO adherent cells were maintained in growth medium (DMEM/Glutamax medium supplemented with 10% v/v heat inactivated fetal bovine serum and 100 units/mL penicillin-streptomycin) and cultured at 37° C. under 5% CO2.
Cell Treatment, in Cell Western (ICW) for Detection of Mono-Methyl Arginine and DNA Content.
RKO cells were seeded in assay medium at a concentration of 20,000 cells per mL to a poly-D-lysine coated 384 well culture plate (BD Biosciences 356697) with 50 μL per well. Compound (100 nL) from a 96-well source plate was added directly to 384 well cell plate. Plates were incubated at 37° C., 5% CO2 for 72 hours. After three days of incubation, plates were brought to room temperature outside of the incubator for ten minutes and blotted on paper towels to remove cell media. 50 μL of ice cold 100% methanol was added directly to each well and incubated for 30 min at room temperature. After 30 min, plates were transferred to a Biotek EL406 plate washer and washed 2 times with 100 μL per well of wash buffer (1×PBS). Next 60 μL per well of Odyssey blocking buffer (Odyssey Buffer with 0.1% Tween 20 (v/v)) were added to each plate and incubated 1 hour at room temperature. Blocking buffer was removed and 20 μL per well of primary antibody was added (mono-methyl arginine diluted 1:200 in Odyssey buffer with 0.1% Tween 20 (v/v)) and plates were incubated overnight (16 hours) at 4° C. Plates were washed 5 times with 100 μL per well of wash buffer. Next 20 μL per well of secondary antibody was added (1:200 800CW goat anti-rabbit IgG (H+L) antibody, 1:1000 DRAQ5 (Biostatus limited) in Odyssey buffer with 0.1% Tween 20 (v/v)) and incubated for 1 hour at room temperature. The plates were washed 5 times with 100 μL per well wash buffer then 2 times with 100 μL per well of water. Plates were allowed to dry at room temperature then imaged on the Licor Odyssey machine which measures integrated intensity at 700 nm and 800 nm wavelengths. Both 700 and 800 channels were scanned.
First, the ratio for each well was determined by:
Each plate included fourteen control wells of DMSO only treatment (minimum activation) as well as fourteen control wells for maximum activation treated with 20 μM of a reference compound. The average of the ratio values for each control type was calculated and used to determine the percent activation for each test well in the plate. Reference compound was serially diluted three-fold in DMSO for a total of nine test concentrations, beginning at 20 μM. Percent activation was determined and EC30 curves were generated using triplicate wells per concentration of compound.

[3] = target: T2, human PRMT1 (Homo sapiens, UniProt Q99873); assay: PRMT1 Biochemical Assay (3H-SAM Flashplate, peptide substrate); conditions: single experiment or average of multiple experiments
T2 construct: GST-tagged PRMT1; made in house; host or cells: High Five insect cells (baculovirus)
From the text: as §1, with “(BSG),” for “(BSG), sodium butyrate”
Recombinant baculovirus were generated according to Bac-to-Bac kit instructions (Life Technologies). […] Infections were carried out at 27° C. for 48 hours, harvested by centrifugation, and stored at −80° C. for purification.
GST-tagged PRMT1 was eluted with 50 mM Tris, 2 mM glutathione, pH 7.8, dialysed in buffer A and concentrated to 1 mg/mL.
General Procedure for PRMT1 Enzyme Assays on Peptide Substrates.
as §2, with “PRMT1,” for “PRMT6,”, “PRMT1” for “PRMT6”, “300” for “400”
as §3, §4

[4] = Biochemical IC50 PRMT6, single experiment or average of multiple experiments
[5] = RKO cells, 72 hours, mono-methyl arginine, percent activation, single experiment or average of multiple experiments, read-out: EC30 (In Cell Western data, Numerical)
[6] = single experiment or average of multiple experiments, read-out: Biochemical IC50 PRMT6
[7] = RKO cells, 72 hours, mono-methyl arginine, percent activation, class symbols, read-out: EC30 (In Cell Western data)

T1 sequence (Q96LA8 with tags, fused parts or gaps): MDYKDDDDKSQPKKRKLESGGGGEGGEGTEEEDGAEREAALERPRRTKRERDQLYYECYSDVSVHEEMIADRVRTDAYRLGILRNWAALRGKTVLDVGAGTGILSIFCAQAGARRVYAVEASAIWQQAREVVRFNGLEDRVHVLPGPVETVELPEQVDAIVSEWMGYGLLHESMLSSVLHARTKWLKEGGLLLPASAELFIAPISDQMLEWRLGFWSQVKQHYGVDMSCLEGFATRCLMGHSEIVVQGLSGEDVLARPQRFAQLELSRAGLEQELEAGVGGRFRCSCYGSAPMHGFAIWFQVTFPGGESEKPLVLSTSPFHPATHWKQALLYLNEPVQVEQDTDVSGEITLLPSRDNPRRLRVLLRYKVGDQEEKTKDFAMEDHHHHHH
T2 sequence (Q99873 with tags, fused parts or gaps): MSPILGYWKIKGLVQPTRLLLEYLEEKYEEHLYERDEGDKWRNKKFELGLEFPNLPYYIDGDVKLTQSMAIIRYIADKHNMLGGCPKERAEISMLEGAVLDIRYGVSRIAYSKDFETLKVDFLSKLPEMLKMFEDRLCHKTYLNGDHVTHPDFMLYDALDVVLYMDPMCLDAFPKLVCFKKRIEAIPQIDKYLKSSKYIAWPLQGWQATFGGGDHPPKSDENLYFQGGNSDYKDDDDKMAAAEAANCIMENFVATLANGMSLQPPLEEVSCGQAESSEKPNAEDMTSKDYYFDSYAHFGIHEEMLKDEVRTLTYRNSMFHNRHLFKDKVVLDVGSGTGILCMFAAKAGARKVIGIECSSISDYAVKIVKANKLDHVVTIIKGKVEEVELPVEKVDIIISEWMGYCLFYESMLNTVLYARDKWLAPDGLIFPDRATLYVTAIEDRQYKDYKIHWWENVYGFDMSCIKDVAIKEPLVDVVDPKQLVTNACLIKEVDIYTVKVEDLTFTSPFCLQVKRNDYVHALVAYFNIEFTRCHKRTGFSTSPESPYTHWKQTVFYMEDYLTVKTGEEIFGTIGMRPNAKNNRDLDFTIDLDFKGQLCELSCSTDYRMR

IC50 [1, 4] [nM] | SMILES | EC30 [2, 5] [µM] | IC50 ([1]; Biochemical IC50 PRMT6) [nM] | further results
10.6 | CNCCN(C)Cc1c[nH]nc1-c1ccc(OC(C)C)cc1 [Compound 19, N^1-((3-(4-isopropoxyphenyl)-1H-pyrazol-4-yl)methyl)-N^1,N^2-dimethylethane-1,2-diamine] | 0.067 |  | 
1570 | COCCn1ncc(CN(C)CCN(C)C)c1-c1ccc(F)cc1 [Compound 64] |  |  | 
2730 | CN(CCN)Cc1cn(CC(O)CO)nc1-c1ccc(F)cc1 (stereo not drawn) [Compound 76] |  |  | IC50 [3]: 6390 nM
2370 | CN(CCN)Cc1cn(CC2CCOCC2)nc1-c1ccc(F)cc1 [Compound 128] |  |  | IC50 [3]: 6500 nM
13.3 | CN(CCN)Cc1c[nH]nc1-c1ccc(OCCCN2CCOCC2)cc1 [Compound 186] | 12.8 |  | 
9.24 | CNCCN(C)Cc1cn[nH]c1-c1ccc(OC(C)C)c(Cl)c1 [Compound 201] | 0.255 |  | 
4.74 | CNCCN(C)Cc1c[nH]nc1-c1ccc(Oc2ccccc2)c(C#N)c1 [Compound 234] |  |  | IC50 [3]: 7.75 nM
3.18 | CNCCN(C)Cc1c[nH]nc1-c1ccc(Oc2cccc(C(=O)N(C)C)c2)cc1 [Compound 264] | 3.52 |  | 
2.73 | CNCCN(C)Cc1n[nH]cc1-c1ccc(Oc2cccc(C(=O)N(C)C)c2)cc1 [Compound 269] | 14.9 |  | 
5.17 | CNCCN(C)Cc1n[nH]cc1-c1ccc(Oc2ccccc2C(=O)NC)cc1 [Compound 278] | 8.23 |  | 
24.6 | CCOc1ccc(-c2n[nH]cc2CN(C)CCNC)cc1 [Compound 294] | 0.224 | < 100 | EC30 [2, 7]: < 3 µM

More lines, now with the values behind:

SMILES | IC50 [1, 4] [nM] | EC30 [2, 5] [µM] | IC50 ([1]; Biochemical IC50 PRMT6) [nM] | further results
COCCn1cc(CN(C)CCN(C)C)c(-c2ccc(F)cc2)n1 [Compound 61] | > 10000 |  | > 10000 | 
CN(CCN)Cc1cn(CC2COC2)nc1-c1ccc(F)cc1 [Compound 79] | > 10000 | > 20 | > 10000 | 
CN(CCN)Cc1cnn(CC2COC2)c1-c1ccc(F)cc1 [Compound 80] | > 10000 | > 20 | > 10000 | 
CN(CCN)Cc1c(-c2ccc(C#N)cc2)cnn1C [Compound 84] | > 10000 |  | > 10000 | 
CN(CCN1CCCC1)Cc1c[nH]nc1-c1ccc(C#N)cc1 [Compound 139] | > 10000 | > 20 | > 10000 | 
CN(CCN)Cc1c[nH]nc1-c1ccc(N2CCN(C(=O)Cc3ccccc3)CC2)cc1 [Compound 190] |  | 8.39 |  | IC50 [1, 6]: 20.1 nM
CN(CCN)Cc1c[nH]nc1-c1ccc(Oc2ccccc2)cc1 [Compound 200] |  | 0.596 |  | 
CNCCN(C)Cc1cnn(C)c1-c1ccc(OC(C)C)c(Cl)c1 [Compound 220, N^1-((5-(3-chloro-4-isopropoxyphenyl)-1-methyl-1H-pyrazol-4-yl)methyl)-N^1,N^2-dimethylethane-1,2-diamine] |  | 0.211 |  | IC50 [1, 6]: 23.1 nM
COCCn1cnc(-c2ccc(C#N)cc2)c1CN(C)CCN [Compound 223] | > 10000 | > 20 | > 10000 | 
CNCCN(C)Cc1c[nH]nc1-c1ccc(Oc2cccc(C(=O)NC)c2)cc1 [Compound 263] | 1.92 |  |  | IC50 [3]: 4.35 nM; EC30 ([2]; read-out: EC30 (In Cell Western data, Numerical, μM)): 1.29 µM
CCC(CO)Oc1ccc(-c2n[nH]cc2CN(C)CCNC)cc1 (stereo not drawn) [Compound 287] |  | 0.202 | < 100 | IC50 [1, 6]: 24.8 nM; EC30 [2, 7]: < 3 µM
